Test results reported in patent US11369625B2, “Anti-tumor agent, anti-tumor effect enhancer, and anti-tumor kit” (FUJIFILM Corporation, priority 2017, dated 2022).

What was measured:
[1] = system: human pancreatic cancer cell line Capan-1; experiment: Combinational effect test in Capan-1 subcutaneously implanted tumor-bearing model mouse (anti-tumor effect); format: in vivo, BALB/cA Jcl-nu mice; design: key to vs. control: * statistically significant; settings: for T/C (%): average RTV of treated group / average RTV of control group x 100, Day 33; for GC (%): growth of control, calculated from RTV at Day 33; for RTV (mean ± standard deviation): relative tumor volume, TV at Day 33 / TV at Day 1, tail vein once a week, three times, n=8; for vs. control: statistical significance of RTV vs. control group, Day 33
Description: Combinational effect test in Capan-1 subcutaneously implanted tumor-bearing model mouse
Gemcitabine (hereinafter, also referred to as Gem), Abraxane (hereinafter, also referred to as Abx), and methanesulfonate of Compound A were used as test substances.
Gemcitabine was prepared by dissolving gemcitabine hydrochloride (manufactured by Teva Pharmaceutical Industries Limited) in physiological saline. Abraxane was prepared by dissolving Abraxane (manufactured by Celgene Corporation) in physiological saline.
Capan-1 cell, a human pancreatic cancer cell line, was subcutaneously injected into the posterior flank of 5 to 6-week old female BALB/cA Jcl-nu mice. After tumor implantation, the major diameter (mm) and minor diameter (mm) of the tumor were measured, and the tumor volume (TV) was calculated. Mice were assigned to each group so that the average TV of each group was equal, and the day on which this grouping (n=8) was carried out was taken as Day 1.
The test liquid in Abraxane alone group was prepared to be 30 mg/kg/day as the administration dose. In addition, the test liquid in Compound A alone group was prepared to be 480 mg/kg/day. Compound A was administered from the mouse tail vein a total of three times from Day 1 once a week, and Abraxane was similarly administered from the mouse tail vein a total of three times from Day 1 once a week. In the combined administration group, Compound A was administered at 480 mg/kg/day and Abraxane was administered at 30 mg/kg/day.
As a comparative experiment, gemcitabine was used as a control. The test liquid of gemcitabine alone group was prepared to be 240 mg/kg/day. Gemcitabine was administered from the mouse tail vein a total of three times from Day 1 once a week. In the combined administration group, gemcitabine was administered at 240 mg/kg/day and Abraxane was administered at 30 mg/kg/day.
In this test, doses of Compound A and gemcitabine were set using MTD of each drug. Abraxane was used at the maximum dose usable in combination with each drug. […] In this test example, the MTD and the maximum effect dose are almost synonymous.
As an index of anti-tumor effect, TV at Day 33 was measured in each drug administration group. According to the following equation, a relative tumor volume (RTV) with respect to Day 1 and T/C (%) were calculated to evaluate the anti-tumor effect. […] TV (mm^3)=(major diameter×minor diameter^2)/2 RTV=(TV at Day 33)/(TV at Day 1) T/C (%)=[(average RTV value of test liquid administered group)/(average RTV value of control group)]×100
On the combinational effect of the present invention, the results of evaluation using a combination index (CI) which is a quantitative index of the combinational effect are shown. The CI can be calculated by the following equation according to Cancer Research, 2010, Vol. 70, pp. 440 to 446.
That is, in the case where the drugs to be used in combination are drugs 1 and 2, CI=(T/C at the time of combination use)÷100/{[(T/C of drug 1)÷100]×[(T/C of drug 2)÷100]} CI=1: additive effect CI>1: antagonistic effect CI<1: synergistic effect
In addition, on the combinational effect of the present invention, the results of evaluation using a tumor growth inhibitory effect (growth of control (GC)) are shown. For the evaluation method, the same method as in B of FIG. 5 of Molecular Cancer Therapeutics, 2013, Vol. 12, pp. […] was used.
As described in the above document, the GC can be calculated by the following equation. In the case where RTV>1 GC (%)=[(corresponding drug RTV-1)/(control RTV-1)]×100 [1] In the case where RTV≤1 GC (%)=(corresponding drug RTV-1)×100 [2]
Combinational effect was estimated from the drug efficacy with Abraxane and Compound A or gemcitabine alone by the following calculation equation. The estimated combination use GC (%)=[GC (%) of Abraxane×drug alone GC (%)]÷100

[2] = system: tumor; settings: oral administration to mice; cited from earlier work

Structure (SMILES) | T/C (%) [1] [%] | GC (%) [1] [%] | RTV (mean ± standard deviation) [1] | vs. control [1] | enhancement of anti-tumor effect in combination use ([1]; Compound A 480 mg/kg/day with Abraxane 30 mg/kg/day, nude mice) | anti-tumor activity [2]
Nc1ccn([C@@H]2O[C@H](CO)[C@@H](O)C2(F)F)c(=O)n1 [Gem, gemcitabine, reference compound] | 68.3 | 57.8 | 2.74 ± 0.41 | * | – | –
Nc1ccn([C@@H]2S[C@H](CO)[C@@H](O)[C@@H]2F)c(=O)n1 [Compound A, 1-(2-deoxy-2-fluoro-4-thio-β-D-arabinofuranosyl)cytosine] | 32.2 | 9.6 | 1.29 ± 0.59 | * | significantly enhanced the anti-tumor effect of Abraxane | potent anti-tumor activity
